Experimental data as given in ChEMBL document CHEMBL3885861, “Open TG-GATES”.

Species: Rattus norvegicus
Test: Open TG-GATES - Regimen: Daily Repeat
Type: toxicity, organism-based, Sprague-Dawley
Set-up: regimen Daily Repeat, gender Male, age 6 weeks
Conditions: in vivo, po, 100 mg/kg, route gavage, dose level High; for APTT / Bas / Eos / Fbg / Hb / Ht / Lym / MCHC / MCV / Mono / Neu / PT / Plat / RBC / Ret / WBC: tissue Blood; for KIDNEY_L / KIDNEY_R / KIDNEY_TOTAL: tissue Kidney; for LIVER: tissue Liver; for ALP / ALT / AST / BUN / CRE / Ca / Cl / DBIL / GLC / IP / K / LDH / Na / PL / RALB / TBIL / TC / TG / TP / gamma-GTP: tissue Plasma

CS(=O)(=O)Nc1ccc([N+](=O)[O-])cc1Oc1ccccc1 [NIMESULIDE]
TERMINAL_BW (72 h, time 3 day): 201.1 g
APTT (72 h, time 3 day): 17.3 s
Bas (72 h, time 3 day): 0%
Eos (72 h, time 3 day): 1.4%
Fbg (72 h, time 3 day): 222 mg/dL
Hb (72 h, time 3 day): 14.1 g/dL
Ht (72 h, time 3 day): 41.6%
Lym (72 h, time 3 day): 66.8%
MCHC (72 h, time 3 day): 34%
MCV (72 h, time 3 day): 64.1 fL
Mono (72 h, time 3 day): 8.6%
Neu (72 h, time 3 day): 22.8%
PT (72 h, time 3 day): 11.6 s
Plat (72 h, time 3 day): 113.5 x10_4/uL
RBC (72 h, time 3 day): 649.4 x10_4/ul
Ret (72 h, time 3 day): 6.7%
WBC (72 h, time 3 day): 100.9 x10_2/uL
KIDNEY_L (72 h, time 3 day): 0.9 g
KIDNEY_R (72 h, time 3 day): 0.9 g
KIDNEY_TOTAL (72 h, time 3 day): 1.9 g
LIVER (72 h, time 3 day): 10.5 g
ALP (72 h, time 3 day): 841.4 IU/L
ALT (72 h, time 3 day): 37.4 IU/L
AST (72 h, time 3 day): 63.8 IU/L
BUN (72 h, time 3 day): 21.8 mg/dL
CRE (72 h, time 3 day): 0.5 mg/dL
Ca (72 h, time 3 day): 10.9 mg/dL
Cl (72 h, time 3 day): 105 meq/L
DBIL (72 h, time 3 day): 0.06 mg/dL
GLC (72 h, time 3 day): 178.2 mg/dL
IP (72 h, time 3 day): 6.7 mg/dL
K (72 h, time 3 day): 4.4 meq/L
LDH (72 h, time 3 day): 97.2 IU/L
Na (72 h, time 3 day): 141.4 meq/L
PL (72 h, time 3 day): 168.2 mg/dL
RALB (72 h, time 3 day): 4.1 g/dL
TBIL (72 h, time 3 day): 0.3 mg/dL
TC (72 h, time 3 day): 91.2 mg/dL
TG (72 h, time 3 day): 60.6 mg/dL
TP (72 h, time 3 day): 5.6 g/dL
gamma-GTP (72 h, time 3 day): 1.8 IU/L
TERMINAL_BW ([…], time 7 day): 235.6 g
TERMINAL_BW ([…], time 14 day): 287.5 g
TERMINAL_BW ([…], time 28 day): 332.9 g
APTT ([…], time 7 day): 19.1 s
Bas ([…], time 7 day): 0%
Eos ([…], time 7 day): 1.2%
Fbg ([…], time 7 day): 275.5 mg/dL
Hb ([…], time 7 day): 13.3 g/dL
Ht ([…], time 7 day): 39.3%
Lym ([…], time 7 day): 62.5%
MCHC ([…], time 7 day): 33.7%
MCV ([…], time 7 day): 63 fL
Mono ([…], time 7 day): 6.2%
Neu ([…], time 7 day): 30.2%
PT ([…], time 7 day): 11.2 s
Plat ([…], time 7 day): 135.9 x10_4/uL
RBC ([…], time 7 day): 624.5 x10_4/ul
Ret ([…], time 7 day): 11.2%
WBC ([…], time 7 day): 138.2 x10_2/uL
APTT ([…], time 14 day): 17.7 s
Bas ([…], time 14 day): 0%
Eos ([…], time 14 day): 1.4%
Fbg ([…], time 14 day): 250.2 mg/dL
Hb ([…], time 14 day): 13.6 g/dL
Ht ([…], time 14 day): 39.4%
Lym ([…], time 14 day): 55.8%
MCHC ([…], time 14 day): 34.4%
MCV ([…], time 14 day): 65.7 fL
Mono ([…], time 14 day): 9.8%
Neu ([…], time 14 day): 32.8%
PT ([…], time 14 day): 11.6 s
Plat ([…], time 14 day): 141.2 x10_4/uL
RBC ([…], time 14 day): 605 x10_4/ul
Ret ([…], time 14 day): 14%
WBC ([…], time 14 day): 143.9 x10_2/uL
APTT ([…], time 28 day): 18.9 s
Bas ([…], time 28 day): 0%
Eos ([…], time 28 day): 1.4%
Fbg ([…], time 28 day): 235.2 mg/dL
Hb ([…], time 28 day): 15.4 g/dL
Ht ([…], time 28 day): 45.6%
Lym ([…], time 28 day): 71.8%
MCHC ([…], time 28 day): 33.7%
MCV ([…], time 28 day): 59.4 fL
Mono ([…], time 28 day): 8%
Neu ([…], time 28 day): 19.2%
PT ([…], time 28 day): 11.9 s
Plat ([…], time 28 day): 118.9 x10_4/uL
RBC ([…], time 28 day): 769.2 x10_4/ul
Ret ([…], time 28 day): 4%
WBC ([…], time 28 day): 126.2 x10_2/uL
KIDNEY_L ([…], time 7 day): 1.1 g
KIDNEY_R ([…], time 7 day): 1.1 g
KIDNEY_TOTAL ([…], time 7 day): 2.2 g
KIDNEY_L ([…], time 14 day): 1.2 g
KIDNEY_R ([…], time 14 day): 1.3 g
KIDNEY_TOTAL ([…], time 14 day): 2.5 g
KIDNEY_L ([…], time 28 day): 1.3 g
KIDNEY_R ([…], time 28 day): 1.3 g
KIDNEY_TOTAL ([…], time 28 day): 2.6 g
LIVER ([…], time 7 day): 12.7 g
LIVER ([…], time 14 day): 16.1 g
LIVER ([…], time 28 day): 17 g
ALP ([…], time 7 day): 860.8 IU/L
ALT ([…], time 7 day): 32.2 IU/L
AST ([…], time 7 day): 63.2 IU/L
BUN ([…], time 7 day): 20 mg/dL
CRE ([…], time 7 day): 0.6 mg/dL
Ca ([…], time 7 day): 10.9 mg/dL
Cl ([…], time 7 day): 105.5 meq/L
DBIL ([…], time 7 day): 0.0275 mg/dL
GLC ([…], time 7 day): 199.5 mg/dL
IP ([…], time 7 day): 6.6 mg/dL
K ([…], time 7 day): 4.4 meq/L
LDH ([…], time 7 day): 75.8 IU/L
Na ([…], time 7 day): 141.2 meq/L
PL ([…], time 7 day): 166.8 mg/dL
RALB ([…], time 7 day): 4 g/dL
TBIL ([…], time 7 day): 0.4 mg/dL
TC ([…], time 7 day): 92 mg/dL
TG ([…], time 7 day): 68.5 mg/dL
TP ([…], time 7 day): 6 g/dL
gamma-GTP ([…], time 7 day): 1.5 IU/L
ALP ([…], time 14 day): 842 IU/L
ALT ([…], time 14 day): 31.4 IU/L
AST ([…], time 14 day): 60.8 IU/L
BUN ([…], time 14 day): 24.6 mg/dL
CRE ([…], time 14 day): 0.6 mg/dL
Ca ([…], time 14 day): 10.7 mg/dL
Cl ([…], time 14 day): 105.4 meq/L
DBIL ([…], time 14 day): 0.008 mg/dL
GLC ([…], time 14 day): 184.8 mg/dL
IP ([…], time 14 day): 7 mg/dL
K ([…], time 14 day): 4.5 meq/L
LDH ([…], time 14 day): 79.8 IU/L
Na ([…], time 14 day): 141.6 meq/L
PL ([…], time 14 day): 171 mg/dL
RALB ([…], time 14 day): 4 g/dL
TBIL ([…], time 14 day): 0.4 mg/dL
TC ([…], time 14 day): 90.4 mg/dL
TG ([…], time 14 day): 98.8 mg/dL
TP ([…], time 14 day): 5.9 g/dL
gamma-GTP ([…], time 14 day): 2.2 IU/L
ALP ([…], time 28 day): 656.6 IU/L
ALT ([…], time 28 day): 27.6 IU/L
AST ([…], time 28 day): 57.8 IU/L
BUN ([…], time 28 day): 24 mg/dL
CRE ([…], time 28 day): 0.6 mg/dL
Ca ([…], time 28 day): 10.9 mg/dL
Cl ([…], time 28 day): 107.4 meq/L
DBIL ([…], time 28 day): 0.018 mg/dL
GLC ([…], time 28 day): 180.6 mg/dL
IP ([…], time 28 day): 6.8 mg/dL
K ([…], time 28 day): 4.5 meq/L
LDH ([…], time 28 day): 71.2 IU/L
Na ([…], time 28 day): 144.4 meq/L
PL ([…], time 28 day): 182.2 mg/dL
RALB ([…], time 28 day): 4.2 g/dL
TBIL ([…], time 28 day): 0.4 mg/dL
TC ([…], time 28 day): 100.4 mg/dL
TG ([…], time 28 day): 102.6 mg/dL
TP ([…], time 28 day): 6.2 g/dL
gamma-GTP ([…], time 28 day): 1.6 IU/L
